Consider twelve compounds from patent publication US12059422B2 (MEI Pharma, Inc., priority 2011, dated 2024).

Assay [1] addresses T1, PI3Kγ (Mus musculus, UniProt Q9JHG7).
T1 construct: endogenous in cells; host or cells: RAW 264.7 (ATCC #TIB-71)
Description: ELISA assay for PI3Kγ: in-cell ELISA, phosphorylation of AKT (Ser473) in RAW 264.7 cells. It is filed as cell-based. Particulars: cellular, pAKT (Ser473), C5a stimulation, read-out: IC50 p110γ. The protocol:
PI3K gamma (PI3Kγ) activity was determined by measuring the phosphorylation of AKT (Ser473) using an in-cell ELISA assay. RAW 264.7 (mouse macrophage) cells were obtained from ATCC (ATCC #TIB-71). Growth medium was DMEM (CellGro #CV-10-013-CV) supplemented with 10% fetal bovine serum, 100 IU/mL penicillin, 100 μg/mL streptomycin, and 1×MEM non-essential amino acids. Phosphate buffered saline (PBS) contained 2.7 M NaCl, 54 mM KCl, 86 mM […] (dibasic, anhydrous), and 28 mM […] (monobasic, anhydrous) at pH 7.2. Stimulation mixture (10×) was 500 ng/mL recombinant human complement component C5a (R&D systems #2037-C5-025) diluted in serum-free DMEM medium (CellGro #CV-10-013-CV). Compounds for testing were dissolved and serially diluted in 100% DMSO (total of 10 concentrations), then diluted in serum-free DMEM to 2× final assay concentration. Fixative solution (2×) was 8% formaldehyde (Amresco #M134) diluted in PBS. Permeabilization solution was PBS supplemented with 0.10% Triton X-100. Blocking buffer was obtained from LiCor (LiCor #927-40000). Wash buffer was PBS supplemented with 0.1% Tween-20. Primary antibody solution was rabbit anti-pAKT^S473 monoclonal antibody (Cell Signaling #4060) and mouse anti-total S6 (Santa Cruz #74459) diluted 1:500 and 1:2000, respectively, in the blocking buffer. Secondary antibody solution was IRDye 800CW-conjugated goat anti-rabbit IgG (LiCor #926-32211) and IRDye 680LT-conjugated goat anti-mouse IgG (LiCor #926-68020) diluted 1:1000 and 1:2000, respectively, in the blocking buffer.
(§1) RAW 264.7 cells were subcultured in growth medium and seeded into flat, clear bottom, 96-well plates (Corning #3904) at 70000 cells/well, then incubated overnight in a 37° C., 5% CO2 incubator. Growth medium in plates was replaced with 100 μL/well serum-free DMEM and incubated overnight in a 37° C., 5% CO2 incubator. Fresh serum-free DMEM (50 μL/well) was added to plates. Compound treatment was performed by adding 50 μL/well of 2× compound mixture to plates and incubating for 2 hrs at 37° C., 5% CO2, after which 11 μL/well of 10× stimulation mixture was added and plates were incubated for 3 min at 37° C., 5% CO2. Fixation was performed by adding 110 μL/well of 2× fixative solution to plates and incubating for 20 min at room temperature. Permeabilization was performed by replacing fixation solution with 150 μL/well permeabilization solution and incubating for 10 min at room temperature. Permeabilization was repeated (for a total of 2 times). Permeabilization solution was replaced with 100 μL/well blocking buffer and plates were incubated for 1 hr at room temperature, after which 100 μL/well of primary antibody solution was added and plates were incubated overnight at 4° C. Plates were washed with wash buffer, after which 100 μL/well of secondary antibody solution was added to the plates and incubated in the dark for 1 hr at room temperature. Plates were washed with wash buffer, followed by awash with PBS. After completely removing PBS, plates were scanned on the Licor Odyssey Imager. Images were quantified using Licor Odyssey application software. IC50 values were determined by curve fitting using a Collaborative Drug Discovery database (www.collaborativedrug.com).

The target in assay [2] is T2, PI3Kβ (Homo sapiens, UniProt P42338).
T2 construct: endogenous in cells; host or cells: PC-3 (ATCC #CRL-1435)
T2 sequence (P42338 whole entry): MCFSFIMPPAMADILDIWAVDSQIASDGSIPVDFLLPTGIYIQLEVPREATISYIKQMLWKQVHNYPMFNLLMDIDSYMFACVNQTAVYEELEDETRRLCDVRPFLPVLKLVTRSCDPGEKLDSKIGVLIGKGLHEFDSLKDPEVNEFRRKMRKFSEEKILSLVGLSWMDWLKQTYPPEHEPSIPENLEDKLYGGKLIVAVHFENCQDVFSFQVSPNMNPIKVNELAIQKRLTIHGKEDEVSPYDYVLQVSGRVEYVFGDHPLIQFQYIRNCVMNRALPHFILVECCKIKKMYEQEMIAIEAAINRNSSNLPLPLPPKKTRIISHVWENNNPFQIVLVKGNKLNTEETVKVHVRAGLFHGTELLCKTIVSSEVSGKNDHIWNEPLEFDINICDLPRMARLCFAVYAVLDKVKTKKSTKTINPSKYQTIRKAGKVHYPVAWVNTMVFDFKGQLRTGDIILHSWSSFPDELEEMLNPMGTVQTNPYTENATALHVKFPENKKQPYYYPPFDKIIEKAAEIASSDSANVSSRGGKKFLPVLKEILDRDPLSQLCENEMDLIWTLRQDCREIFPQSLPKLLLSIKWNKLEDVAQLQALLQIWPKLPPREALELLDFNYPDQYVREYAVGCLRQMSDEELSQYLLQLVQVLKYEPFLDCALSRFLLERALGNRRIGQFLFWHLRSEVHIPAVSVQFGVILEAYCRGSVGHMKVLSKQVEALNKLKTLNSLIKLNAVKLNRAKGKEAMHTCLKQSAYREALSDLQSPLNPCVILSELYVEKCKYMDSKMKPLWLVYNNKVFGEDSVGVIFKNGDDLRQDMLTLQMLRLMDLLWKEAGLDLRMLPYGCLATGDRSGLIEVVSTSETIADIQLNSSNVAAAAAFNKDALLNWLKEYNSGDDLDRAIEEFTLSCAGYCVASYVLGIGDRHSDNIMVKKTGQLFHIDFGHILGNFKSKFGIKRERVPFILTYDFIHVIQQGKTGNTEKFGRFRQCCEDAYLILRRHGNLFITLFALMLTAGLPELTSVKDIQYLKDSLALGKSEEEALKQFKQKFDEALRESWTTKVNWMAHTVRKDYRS
T2 sequence (P27986 whole entry partner): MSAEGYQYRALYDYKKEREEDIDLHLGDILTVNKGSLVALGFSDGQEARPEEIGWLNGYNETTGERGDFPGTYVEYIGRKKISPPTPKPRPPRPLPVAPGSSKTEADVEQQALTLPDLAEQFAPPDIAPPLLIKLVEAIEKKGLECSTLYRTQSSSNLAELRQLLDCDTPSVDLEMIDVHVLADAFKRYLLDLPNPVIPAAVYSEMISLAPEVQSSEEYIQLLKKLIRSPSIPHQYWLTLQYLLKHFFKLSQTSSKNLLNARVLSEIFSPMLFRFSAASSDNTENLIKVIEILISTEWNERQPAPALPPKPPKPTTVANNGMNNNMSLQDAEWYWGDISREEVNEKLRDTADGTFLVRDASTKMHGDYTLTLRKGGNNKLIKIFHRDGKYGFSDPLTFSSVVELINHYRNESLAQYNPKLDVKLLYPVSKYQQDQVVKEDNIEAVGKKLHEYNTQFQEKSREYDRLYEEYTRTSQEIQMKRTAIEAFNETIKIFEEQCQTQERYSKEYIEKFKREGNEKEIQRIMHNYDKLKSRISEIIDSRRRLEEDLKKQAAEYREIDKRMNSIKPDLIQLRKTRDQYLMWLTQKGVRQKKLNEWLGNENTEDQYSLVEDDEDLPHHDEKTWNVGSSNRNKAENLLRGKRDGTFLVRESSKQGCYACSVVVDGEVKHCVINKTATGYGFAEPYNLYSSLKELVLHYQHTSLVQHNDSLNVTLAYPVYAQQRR
The experiment in a line: ELISA assay for PI3Kβ: in-cell ELISA, phosphorylation of AKT (Ser473) in PC-3 cells. It is filed as cell-based. To be noted: for IC50: cellular, pAKT (Ser473), PC-3 cells, LPA stimulation, read-out: IC50 p110β; for α/β ratio: ratio of cellular IC50 values, Table 2. The procedure: Cellular PI3Kβ activity was determined by measuring the phosphorylation of AKT (Ser473) using an in-cell ELISA assay. PC-3 (prostate carcinoma) cells were obtained from ATCC (ATCC #CRL-1435). Growth medium was DMEM (CellGro #CV-10-013-CV) supplemented with 10% fetal bovine serum, 100 IU/mL penicillin, 100 μg/mL streptomycin, and 1×MEM non-essential amino acids. Phosphate buffered saline (PBS) contained 2.7 M NaCl, 54 mM KCl, 86 mM […] (dibasic, anhydrous), 28 mM […] (monobasic, anhydrous), pH 7.2, 10× stimulation mixture contained 50 μM LPA (Cayman #62215) diluted in serum-free DMEM medium (CellGro #CV-10-013-CV). Compounds for testing were dissolved and serially diluted in 100% DMSO (total of 10 concentrations), then diluted in serum-free DMEM to 2× final assay concentration. 2× fixative solution contained 8% formaldehyde (Amresco #M134) diluted in PBS. Permeabilization solution contained PBS supplemented with 0.1% Triton X-100. Blocking buffer was obtained from LiCor (LiCor #927-40000). Wash buffer contained PBS supplemented with 0.1% Tween-20. Primary antibody solution was rabbit anti-pAKT^S473 monoclonal antibody (Cell Signaling #4060) and mouse anti-total S6 (Santa Cruz #74459) diluted 1:500 and 1:2000, respectively, in blocking buffer. Secondary antibody solution was IRDye 800CW-conjugated goat anti-rabbit IgG (LiCor #926-32211) and IRDye 680LT-conjugated goat anti-mouse IgG (LiCor #926-68020) diluted 1:2000 and 1:1000, respectively, in blocking buffer.
as §1, with “PC-3 cells” for “RAW 264.7 cells”, “at 16000” for “at 70000”, “incubator. 50 μL/well of fresh” for “incubator. Fresh”, “DMEM” for “DMEM (50 μL/well)”, “for 10” for “for 3”, “Images” for “Images were”
A general note: ELISA stands for enzyme-linked immunosorbent assay.

T1 sequence (Q9JHG7 whole entry): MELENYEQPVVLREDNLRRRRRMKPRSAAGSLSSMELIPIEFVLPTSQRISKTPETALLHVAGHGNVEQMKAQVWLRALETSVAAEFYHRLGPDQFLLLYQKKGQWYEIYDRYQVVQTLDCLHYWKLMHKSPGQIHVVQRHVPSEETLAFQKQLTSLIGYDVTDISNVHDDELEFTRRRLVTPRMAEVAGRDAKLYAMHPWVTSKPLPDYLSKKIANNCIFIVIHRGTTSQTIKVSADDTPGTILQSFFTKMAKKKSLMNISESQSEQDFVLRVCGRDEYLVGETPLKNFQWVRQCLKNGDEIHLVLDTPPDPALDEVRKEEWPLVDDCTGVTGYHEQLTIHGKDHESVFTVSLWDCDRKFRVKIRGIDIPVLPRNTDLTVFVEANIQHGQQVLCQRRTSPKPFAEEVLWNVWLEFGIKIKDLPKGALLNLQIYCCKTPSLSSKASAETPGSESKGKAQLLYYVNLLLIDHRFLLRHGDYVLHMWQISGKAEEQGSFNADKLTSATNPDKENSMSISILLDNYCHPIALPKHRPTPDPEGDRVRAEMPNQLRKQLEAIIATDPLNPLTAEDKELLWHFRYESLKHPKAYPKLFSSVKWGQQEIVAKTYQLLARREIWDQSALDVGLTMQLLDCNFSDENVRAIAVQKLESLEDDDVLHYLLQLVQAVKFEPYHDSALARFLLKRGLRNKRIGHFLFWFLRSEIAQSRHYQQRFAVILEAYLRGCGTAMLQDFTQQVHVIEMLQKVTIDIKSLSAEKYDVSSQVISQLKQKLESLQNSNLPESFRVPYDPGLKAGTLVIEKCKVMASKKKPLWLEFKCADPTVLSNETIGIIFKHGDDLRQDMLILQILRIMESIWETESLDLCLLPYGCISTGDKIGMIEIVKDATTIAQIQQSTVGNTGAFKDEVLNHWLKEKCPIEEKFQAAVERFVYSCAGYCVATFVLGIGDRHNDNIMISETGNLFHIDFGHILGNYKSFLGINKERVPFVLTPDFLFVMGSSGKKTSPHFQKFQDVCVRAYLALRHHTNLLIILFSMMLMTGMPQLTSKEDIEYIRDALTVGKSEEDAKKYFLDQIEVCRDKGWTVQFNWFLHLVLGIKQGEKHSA

As to `CCN1CCC(c2ccccc2CC(C)(C)Nc2nc(N3CCOCC3)nc(-n3c(C(F)F)nc4ccccc43)n2)CC1` [Compound A70, 4-(2-(difluoromethyl)-1H-benzo[d]imidazol-1-yl)-N-(1-(2-(1-ethylpiperidin-4-yl)phenyl)-2-methylpropan-2-yl)-6-morpholino-1,3,5-triazin-2-amine], the half-inhibitory concentration (IC50) (commonly the concentration that gives 50% inhibition) in assay [1] is greater than 500 nM. Moreover, in assay [2], the half-maximal inhibitory concentration (IC50) was no more than 100 nM and the α/β ratio result is “A’”.

On to `CC(C)(Cc1ccccc1C1CCNCC1)Nc1nc(N2CCOCC2)nc(-n2c(C(F)F)nc3ccccc32)n1` [Compound A68, 4-(2-(difluoromethyl)-1H-benzo[d]imidazol-1-yl)-N-(2-methyl-1-(2-(piperidin-4-yl)phenyl)propan-2-yl)-6-morpholino-1,3,5-triazin-2-amine], for which the half-inhibitory concentration (IC50) is 200 to 500 nM in assay [1] and no more than 100 nM in assay [2]. For the same compound, the α/β ratio result in assay [2] is listed as “A’”.

Consider `CC(C)N1CCC(c2ccccc2CC(C)(C)Nc2nc(N3CCOCC3)nc(-n3c(C(F)F)nc4ccccc43)n2)CC1` [Compound A71, 4-(2-(difluoromethyl)-1H-benzo[d]imidazol-1-yl)-N-(1-(2-(1-isopropylpiperidin-4-yl)phenyl)-2-methylpropan-2-yl)-6-morpholino-1,3,5-triazin-2-amine], for which the IC50 in assay [1] is greater than 500 nM. In addition, in assay [2], the concentration for half-maximal inhibition (IC50) was no more than 100 nM and the α/β ratio result is “A’”.

As to `CC(C)(Cc1ccccc1-c1ccccc1Cl)Nc1nc(N2CCOCC2)nc(-n2c(C(F)F)nc3ccccc32)n1` [Compound A61, 4-(2-(difluoromethyl)-1H-benzo[d]imidazol-1-yl)-N-(1-(6′-chlorobiphenyl-2-yl)-2-methylpropan-2-yl)-6-morpholino-1,3,5-triazin-2-amine], in assay [1], the half-maximal inhibitory concentration (IC50) was greater than 500 nM. Moreover, in assay [2], the IC50 lay in the range of 100 to 200 nM and the α/β ratio entry is reported as “A’”.

Regarding `COc1cc(-c2ccccc2CC(C)(C)Nc2nc(N3CCOCC3)nc(-n3c(C(F)F)nc4ccccc43)n2)ccn1` [Compound A41, 4-(2-(difluoromethyl)-1H-benzo[d]imidazol-1-yl)-N-(1-(2-(2-methoxypyridin-4-yl)phenyl)-2-methylpropan-2-yl)-6-morpholino-1,3,5-triazin-2-amine], in assay [1], the IC50 is greater than 500 nM. Moreover, in assay [2], the IC50 is 100 to 200 nM and the α/β ratio entry is reported as “B’”.

`CC(C)(Cc1ccccc1-c1cccnc1F)Nc1nc(N2CCOCC2)nc(-n2c(C(F)F)nc3ccccc32)n1` [Compound A62]: the IC50 in assay [1] lay within 200 to 500 nM. Further, in assay [2], the IC50 was no more than 100 nM and the α/β ratio result is given as “A’”.

In the case of `CC(C)(Cc1ccccc1F)Nc1nc(N2CCOCC2)nc(-n2c(C(F)F)nc3ccccc32)n1` [Compound A15, 4-(2-(difluoromethyl)-1H-benzo[d]imidazol-1-yl)-N-(1-(2-fluorophenyl)-2-methylpropan-2-yl)-6-morpholino-1,3,5-triazin-2-amine], the IC50 in assay [1] fell in the range of 200 to 500 nM. Also, in assay [2], the half-maximal inhibitory concentration (IC50) was no more than 100 nM and the α/β ratio result is listed as “C’”.

With `COc1cccc(CC(C)(C)Nc2nc(N3CCOCC3)nc(-n3c(C(F)F)nc4ccccc43)n2)c1` [Compound A21, 4-(2-(difluoromethyl)-1H-benzo[d]imidazol-1-yl)-N-(1-(3-methoxyphenyl)-2-methylpropan-2-yl)-6-morpholino-1,3,5-triazin-2-amine], the IC50 in assay [1] lay in the range of 200 to 500 nM. In addition, in assay [2], the IC50 is 100 to 200 nM and the α/β ratio entry was “A’”.

With `CN1CCC(c2ccccc2CC(C)(C)Nc2nc(N3CCOCC3)nc(-n3c(C(F)F)nc4ccccc43)n2)CC1` [Compound A35, 4-(2-(difluoromethyl)-1H-benzo[d]imidazol-1-yl)-N-(2-methyl-1-(2-(1-methylpiperidin-4-yl)phenyl)propan-2-yl)-6-morpholino-1,3,5-triazin-2-amine], in assay [1], the IC50 fell in the range of 200 to 500 nM. For the same compound, in assay [2], the IC50 is no more than 100 nM and the α/β ratio entry is listed as “A’”.

As for `CC(C)(Cc1ccc(F)cc1F)Nc1nc(N2CCOCC2)nc(-n2c(C(F)F)nc3ccccc32)n1` [Compound A51, 4-(2-(difluoromethyl)-1H-benzo[d]imidazol-1-yl)-N-(1-(2,4-difluorophenyl)-2-methylpropan-2-yl)-6-morpholino-1,3,5-triazin-2-amine], the IC50 in assay [1] was in the range of 100 to 200 nM. For the same compound, in assay [2], the 50% inhibitory concentration (IC50) lay within 100 to 200 nM and the α/β ratio result was “C’”.

Consider `CC(C)(Cc1ccc(F)cc1)Nc1nc(N2CCOCC2)nc(-n2c(C(F)F)nc3ccccc32)n1` [Compound A22, 4-(2-(difluoromethyl)-1H-benzo[d]imidazol-1-yl)-N-(1-(4-fluorophenyl)-2-methylpropan-2-yl)-6-morpholino-1,3,5-triazin-2-amine], for which the IC50 in assay [1] lay in the range of 200 to 500 nM. In assay [2], the IC50 is no more than 100 nM and the α/β ratio entry is “C’”.

For the compound `Cn1cc(-c2ccccc2CC(C)(C)Nc2nc(N3CCOCC3)nc(-n3c(C(F)F)nc4ccccc43)n2)cn1` [Compound A45, 4-(2-(difluoromethyl)-1H-benzo[d]imidazol-1-yl)-N-(2-methyl-1-(2-(1-methyl-1H-pyrazol-4-yl)phenyl)propan-2-yl)-6-morpholino-1,3,5-triazin-2-amine], in assay [1], the IC50 was no more than 100 nM. In addition, in assay [2], the 50% inhibitory concentration (IC50) was no more than 100 nM and the α/β ratio entry was “A’”.
